Results published in EP0123157B1, “Medicaments and/or foodstuff concentrates with an anti-bacterial activity” (EGIS GYOGYSZERGYAR, priority 1983, dated 1984).
In brackets after ≈: the same amount, converted by molar mass. Where two headings read alike, the source gives them in different places.

Key:
Test in all cases: Minimum inhibitory concentration (MIC) in vitro in broth containing phenol red and glucose
Format in all cases: cell-based
[1] = tested on: Bordatella bronchiseptica; conditions: read-out: Werte der Mindesthemmkonzentration [MIC-Werte]
Source text: (§1) Die Mindesthemmkonzentration (MIC-Werte) der Kombination der 3 obigen Wirkstoffe und der einzelnen obigen Wirkstoffe wurden in vitro gegen die Bakterienstämme Escherichia coli 494, Bordatella bronchiseptica, Staphylococcus aureus und Listeria monocytogenes in einer Phenolrot und Glucose enthaltenden Brühe [Hersteller: Firma Difca] bestimmt.

[2] = tested on: Gegen Chloramphenicol resistenter Stamm Escherichia coli 494; conditions: single substance; inhibits bacterial growth for 24 hours; chloramphenicol-resistant Escherichia coli 494; read-out: Werte der Mindesthemmkonzentration [MIC-Werte]
Source text: as §1

Listeria monocytogenes = conditions: read-out: Werte der Mindesthemmkonzentration [MIC-Werte]
Source text: as §1

Staphylococcus aureus = conditions: read-out: Werte der Mindesthemmkonzentration [MIC-Werte]
Source text: as §1

[3] = single substance, inhibits bacterial growth for 24 hours, Bordatella bronchiseptica
[4] = single substance, inhibits bacterial growth for 24 hours

Row | MIC [1, 3] [µg/mL] | MIC [2] [µg/mL] | MIC (Listeria monocytogenes; [4]) [µg/mL] | MIC (Staphylococcus aureus; [4]) [µg/mL] | SMILES | MIC ([1]; 24 h) [µg/mL] | MIC (Listeria monocytogenes; 24 h) [µg/mL] | MIC (Staphylococcus aureus; 24 h) [µg/mL]
1 | 5 (≈ 21.9 µM) | 200 (≈ 877 µM) | 5 (≈ 21.9 µM) | 5 (≈ 21.9 µM) | Cc1ccc2c(Cl)cc(Cl)c(O)c2n1 [Chlorchinaldol, 2-(Methyl)-5,7-di-(chlor)-8-(hydroxy)-chinolin] | – | – | –
2 | 50 (≈ 172 µM) | 25 (≈ 86.1 µM) | 50 (≈ 172 µM) | 100 (≈ 344 µM) | COc1cc(Cc2cnc(N)nc2N)cc(OC)c1OC [Trimethoprim, 2,4-Diamino-5-[3', 4', 5'-tri-(methoxy)-benzyl]-pyrimidin] | – | – | –

Row | SMILES | MIC [1, 3] [µg/mL] | MIC [2] [µg/mL] | MIC (Listeria monocytogenes; [4]) [µg/mL] | MIC (Staphylococcus aureus; [4]) [µg/mL] | MIC ([1]; 24 h) [µg/mL] | MIC (Listeria monocytogenes; 24 h) [µg/mL] | MIC (Staphylococcus aureus; 24 h) [µg/mL]
3 | CN(C)CCCN1c2ccccc2Sc2ccc(Cl)cc21 [Chlorpromazin, 2-Chlor-10-[3-(dimethylamino)-propyl]-phenothiazin] | – | 50 (≈ 157 µM) | – | – | 200 (≈ 627 µM) | 25 (≈ 78.4 µM) | 25 (≈ 78.4 µM)
